The text below walks through data of patent US20140128260A1, “Compositions and Methods for Post Emergent Weed Control with Dim Herbicides and Gibberellic Acid” (Valent U.S.A. Corporation, priority 2012, published 2014).

One assay relates to Johnsongrass. The experiment in a line: Effect of clethodim and GA3 treatments on Johnsongrass, field plots (Example 1). In kind it is in vivo, sorghum halepense. The method, then: In order to determine the efficacy of combinations of clethodim and GA3, numerous treatments were applied to plots in an area with abundant Johnsongrass growth.
The percent control of Johnsongrass plants was evaluated at 7, 18 and 28 days following the treatment. Effect of Clethodim and GA3 Treatments on Johnsongrass (% control).”
The percent control refers to the amount of dead tissue on the plants present. It would be dead plants plus desiccated foliage on partially killed plants.

In assay [1] the test system is Glyphosate resistant corn. Kind of assay: Effect of clethodim and GA3 treatments on planted glyphosate resistant corn (Example 2). In kind it is in vivo. The method, then:
A further study was performed in order to confirm the effect clethodim and GA3 treatments have on corn. Glyphosate resistant corn was planted with a conventional four-row planter. Treatments were applied 28 days after the plantings.
Effect of Clethodim and GA3 Treatments on corn (% control).

For `CCSC(C)CC1CC(=O)C(C(CC)=NOC/C=C/Cl)=C(O)C1` (centres unmarked) [Clethodim, 2-[1-[[[(2E)-3-chloro-2-propen-1-yl]oxy]imino]propyl]-5-[2-(ethylthio)propyl]-3-hydroxy-2-cyclohexen-1-one], the Johnsongrass % control was 37.21% in the assay with Johnsongrass (7 DAT, clethodim 32 x g ai/a (9 fl oz/a of Selectmax), with 0.25% v/v NIS and 2.5 lb/acre AMS); 85.66% in the assay on Johnsongrass (18 DAT, clethodim 32 x g ai/a (9 fl oz/a of Selectmax), with 0.25% v/v NIS and 2.5 lb/acre AMS); 89.26% in the assay on Johnsongrass (28 DAT, clethodim 32 x g ai/a (9 fl oz/a of Selectmax), with 0.25% v/v NIS and 2.5 lb/acre AMS). For the same compound, the Corn % control in assay [1] (6 DAT, clethodim 32 gm ai/a, with NIS and AMS) was 48.33%; in assay [1] (13 DAT, clethodim 32 gm ai/a, with NIS and AMS), 88.33%; in assay [1] (29 DAT, clethodim 32 gm ai/a, with NIS and AMS), 96.00%. Moreover, the “Activity of clethodim on corn in the presence of GA3” value in assay [1] (in vivo) is on record as “significantly increased”.
On to `C=C1C[C@]23C[C@@]1(O)CC[C@H]2[C@@]12C=C[C@H](O)[C@@](C)(C(=O)O1)[C@H]2[C@@H]3C(=O)O` [GA3, Gibberellic acid], for which the Johnsongrass % control with Johnsongrass (7 DAT, GA3 5 g ai/a (5 fl oz/a of ProGibb 4%)) amounted to 0%; in the assay with Johnsongrass (7 DAT, GA3 25 g ai/a (25 fl oz/a of ProGibb 4%)), 0%; with Johnsongrass (18 DAT, GA3 5 g ai/a (5 fl oz/a of ProGibb 4%)), 0.32%; with Johnsongrass (18 DAT, GA3 25 g ai/a (25 fl oz/a of ProGibb 4%)) it was 0%; in the assay on Johnsongrass (28 DAT, GA3 5 g ai/a (5 fl oz/a of ProGibb 4%)), 0%; in the assay on Johnsongrass (28 DAT, GA3 25 g ai/a (25 fl oz/a of ProGibb 4%)), 0%. For the same compound, the “Effect of GA3 on the activity of clethodim on Johnsongrass” value in the assay on Johnsongrass (seven days following treatment) is “more than doubles the activity of clethodim”. Also, the Corn % control in assay [1] (6 DAT, GA3 3 g ai/a, with 0.25% v/v NIS and 2.5 lb/acre AMS) is listed as 0%; in assay [1] (6 DAT, GA3 10 g ai/a, with NIS and AMS), 0%; in assay [1] (13 DAT, GA3 3 g ai/a, with NIS and AMS), 0%; in assay [1] (13 DAT, GA3 10 g ai/a, with NIS and AMS) it was 0%; in assay [1] (29 DAT, GA3 3 g ai/a, with NIS and AMS) it was 0%; in assay [1] (29 DAT, GA3 10 g ai/a, with NIS and AMS) it was 0%.
